# Laboratory results from publication PMC3337333 (Bioorganic & medicinal chemistry letters, 2012).
# Tests used:
# apoptosis = conditions: ref [4]; cited from earlier work
# Hsp90 in HCT 116 cells = test: Immunofluorescence staining of Hsp90 in treated colon cancer cells; type: cell-based; conditions: 17-AAG 24 hours 200 nM, compound 3 and compound 4 72 hours 5 µM, polyclonal antibody to Hsp90
# [1] = biological target: Hsp90-TPR protein complexes; conditions: C-terminal binder; ref [21]; cited from earlier work
molecule,measurement,setting,value
Sansalvamide A-amide [compound 1],induction of apoptosis,apoptosis,induce apoptosis
"C=CCNC1=C2C[C@@H](C)C[C@H](OC)[C@H](O)[C@@H](C)/C=C(\C)[C@H](OC(N)=O)[C@@H](OC)/C=C\C=C(/C)C(=O)NC(=CC1=O)C2=O [17-AAG, 17-(allylamino)-17-demethoxygeldanamycin]",Hsp90 staining in cytosol versus DMSO control,Hsp90 in HCT 116 cells,intensify in brightness
CO[C@@H]1[C@@H](OC(N)=O)[C@@H](O)[C@H](Oc2ccc3c(O)c(NC(=O)c4ccc(O)c(CC=C(C)C)c4)c(=O)oc3c2C)OC1(C)C [novobiocin],"IC50, inhibition of binding between Hsp90 and four TPR-containing co-chaperones",[1],millimolar range
